This note sets out measurements from PMC6522510 (Nature Communications, 2019).

Like-named read-outs stand apart in the source and are kept apart here.

What all share (test): cells
What all share (set-up): species or system AML cell lines (8); Secondary HTS, 10-point dose-response in triplicate, Cell Titer Glo viability, four-parameter fit EC50
In general terms: ATP-based viability assays read luminescence as a measure of living cells.

For one assay, the system named is MOLM-13. Particulars: Homo sapiens, read-out: MOLM-13.
A further assay relates to MV4-11. The settings on record: Homo sapiens, read-out: MV4-11.
The subject of a further assay is CHRF288-11. Particulars: read-out: CHRF288-11.
The next assay has as its system CMK. Particulars: Homo sapiens, read-out: CMK.
The next assay has as its system CMS. The settings on record: read-out: CMS.
Another assay deals with M07e. Particulars: M-07e, read-out: M07e.
A further assay relates to ML-2. Particulars: Homo sapiens, read-out: ML-2.
A further assay concerns U937. The settings on record: Homo sapiens, read-out: U937.

Consider `O=C(CCN1CCN(C(=O)OCc2cc(Cl)cc(Cl)c2)CC1)c1ccc2[nH]c(=O)oc2c1` [SJ000833851, PF-8380], for which the EC50 in the assay with MOLM-13 (MOLM-13, 72 h) was 0.0024 µM; in the assay on MV4-11 (MV4-11, 72 h) it was greater than 10 µM; in the assay on CHRF288-11 (72 h), greater than 10 µM; in the assay on CMK (CMK, 72 h), greater than 10 µM; with CMS (72 h), greater than 10 µM; in the assay with M07e (72 h), greater than 10 µM. Moreover, the EC50 with ML-2 (ML-2, 72 h) was greater than 10 µM; in the assay on U937 (U-937, 72 h), greater than 10 µM.

As to `N[C@H](CCC(=O)N[C@@H](Cc1c[nH]c2ccccc12)C(=O)O)C(=O)O` [SJ000795988, GOLOTIMOD], the EC50 with MOLM-13 (MOLM-13, 72 h) was greater than 10 µM; with MV4-11 (MV4-11, 72 h), greater than 10 µM; with CHRF288-11 (72 h), greater than 10 µM; in the assay on CMK (CMK, 72 h) it was greater than 10 µM; in the assay on CMS (72 h) it was greater than 10 µM; with M07e (72 h) it was greater than 10 µM. The EC50 is greater than 10 µM in the assay with ML-2 (ML-2, 72 h) and greater than 10 µM with U937 (U-937, 72 h).

Turning to `CC(/C=C/C(=O)NO)=C\[C@@H](C)C(=O)c1ccc(N(C)C)cc1` [SJ000534770, TRICHOSTATIN A], the EC50 in the assay on MOLM-13 (MOLM-13, 72 h) amounted to 0.0771 µM; in the assay with MV4-11 (MV4-11, 72 h), 0.042 µM; with CHRF288-11 (72 h), 0.0434 µM; in the assay on CMK (CMK, 72 h), 0.047 µM; in the assay with CMS (72 h), 0.0442 µM; with M07e (72 h) it was 0.09 µM. In addition, the EC50 in the assay with ML-2 (ML-2, 72 h) was determined as 0.114 µM; in the assay on U937 (U-937, 72 h), 0.0364 µM.

With `O=C(CCCCCCNC(=O)c1cnc(N(c2ccccc2)c2ccccc2)nc1)NO` [SJ000833835, ROCILINOSTAT], the EC50 is greater than 10 µM in the assay on MOLM-13 (MOLM-13, 72 h); greater than 10 µM in the assay with MV4-11 (MV4-11, 72 h); greater than 10 µM in the assay with CHRF288-11 (72 h); 9.1 µM in the assay on CMK (CMK, 72 h); greater than 10 µM in the assay with CMS (72 h); 2.7 µM in the assay on M07e (72 h). The EC50 in the assay with ML-2 (ML-2, 72 h) is greater than 10 µM; with U937 (U-937, 72 h), 10 µM.

As for `Cn1cc(C2=C(c3cn(C4CCN(Cc5ccccn5)CC4)c4ccccc34)C(=O)NC2=O)c2ccccc21` [ENZASTAURIN], the EC50 with MOLM-13 (MOLM-13, 72 h) is greater than 10 µM; with MV4-11 (MV4-11, 72 h), greater than 10 µM; in the assay with CHRF288-11 (72 h) it was greater than 10 µM; in the assay with CMK (CMK, 72 h), greater than 10 µM; in the assay with CMS (72 h), greater than 10 µM; in the assay with M07e (72 h), greater than 10 µM. Also, the EC50 in the assay with ML-2 (ML-2, 72 h) was greater than 10 µM; in the assay on U937 (U-937, 72 h), greater than 10 µM.

On to `NC(=O)c1ccc(-c2nc(-c3ccc4c(c3)OCO4)c(-c3ccccn3)[nH]2)cc1` [SB-431542], for which the EC50 is greater than 10 µM in the assay with MOLM-13 (MOLM-13, 72 h); greater than 10 µM with MV4-11 (MV4-11, 72 h); greater than 10 µM in the assay on CHRF288-11 (72 h); greater than 10 µM in the assay on CMK (CMK, 72 h); greater than 10 µM in the assay with CMS (72 h); greater than 10 µM in the assay with M07e (72 h). The EC50 in the assay with ML-2 (ML-2, 72 h) was greater than 10 µM; with U937 (U-937, 72 h), greater than 10 µM.

As for `CN(C)CC(=O)Nc1ccc2[nH]c(=O)c3ccccc3c2c1` [SJ000784265, PJ34], the EC50 with MOLM-13 (MOLM-13, 72 h) is greater than 10 µM; with MV4-11 (MV4-11, 72 h), greater than 10 µM; in the assay on CHRF288-11 (72 h), greater than 10 µM; in the assay on CMK (CMK, 72 h), greater than 10 µM; in the assay with CMS (72 h), greater than 10 µM; with M07e (72 h), greater than 10 µM. For the same molecule, the EC50 is greater than 10 µM in the assay with ML-2 (ML-2, 72 h) and greater than 10 µM in the assay with U937 (U-937, 72 h).

Turning to `O=c1[nH]c2ccccc2c2ccccc12` [SJ000288131, 6(5H)-PHENANTHRIDINONE], the EC50 is 2 µM in the assay with MOLM-13 (MOLM-13, 72 h); greater than 10 µM with MV4-11 (MV4-11, 72 h); 2.3 µM in the assay with CHRF288-11 (72 h); greater than 10 µM with CMK (CMK, 72 h); greater than 10 µM with CMS (72 h); greater than 10 µM in the assay on M07e (72 h). Besides, the EC50 with ML-2 (ML-2, 72 h) was 2.7 µM; in the assay with U937 (U-937, 72 h) it was greater than 10 µM.

`Cc1ccc(C(=O)COC(=O)c2cccc(NC(=O)c3ccc([N+](=O)[O-])cc3[N+](=O)[O-])c2)cc1` [SJ000796012, FM19G11]: the EC50 with MOLM-13 (MOLM-13, 72 h) is greater than 10 µM; in the assay on MV4-11 (MV4-11, 72 h), greater than 10 µM; with CHRF288-11 (72 h), greater than 10 µM; in the assay with CMK (CMK, 72 h), greater than 10 µM; with CMS (72 h), greater than 10 µM; in the assay with M07e (72 h), greater than 10 µM. Further, the EC50 in the assay on ML-2 (ML-2, 72 h) is greater than 10 µM; in the assay on U937 (U-937, 72 h), greater than 10 µM.

Take `Cc1cc(Cl)ccc1OCCCC(=O)NO` [SJ000784245, DROXINOSTAT]: the EC50 in the assay with MOLM-13 (MOLM-13, 72 h) is greater than 10 µM; in the assay with MV4-11 (MV4-11, 72 h), greater than 10 µM; in the assay on CHRF288-11 (72 h) it was 0.37 µM; in the assay on CMK (CMK, 72 h), greater than 10 µM; in the assay with CMS (72 h) it was 6.81 µM; in the assay with M07e (72 h), greater than 10 µM. In addition, the EC50 with ML-2 (ML-2, 72 h) is greater than 10 µM; with U937 (U-937, 72 h) it was greater than 10 µM.

`Cc1cc(I)ccc1Nc1c(C(=O)NOCC2CC2)cc(F)c(F)c1F` [SJ000821584, PD 198306]: the EC50 in the assay with MOLM-13 (MOLM-13, 72 h) was greater than 10 µM; with MV4-11 (MV4-11, 72 h), greater than 10 µM; with CHRF288-11 (72 h), greater than 10 µM; in the assay with CMK (CMK, 72 h), greater than 10 µM; with CMS (72 h), greater than 10 µM; in the assay with M07e (72 h) it was greater than 10 µM. Also, the EC50 in the assay on ML-2 (ML-2, 72 h) was greater than 10 µM; in the assay with U937 (U-937, 72 h), greater than 10 µM.

`N#CC(=C(/N)Sc1ccccc1N)/C(C#N)=C(\N)Sc1ccccc1N` [SJ000288250, U0126]: the EC50 is greater than 10 µM in the assay with MOLM-13 (MOLM-13, 72 h); greater than 10 µM in the assay with MV4-11 (MV4-11, 72 h); greater than 10 µM in the assay on CHRF288-11 (72 h); greater than 10 µM with CMK (CMK, 72 h); greater than 10 µM in the assay with CMS (72 h); greater than 10 µM in the assay with M07e (72 h). Also, the EC50 was greater than 10 µM in the assay with ML-2 (ML-2, 72 h) and greater than 10 µM with U937 (U-937, 72 h).

Consider `O=C(O)Cc1ccccc1` [SJ000784253, SODIUM PHENYLACETATE], for which the EC50 with MOLM-13 (72 h cell viability) was 2.1 µM; in the assay on MV4-11 (72 h cell viability), greater than 10 µM; in the assay with CHRF288-11 (72 h cell viability), greater than 10 µM; in the assay with CMK (72 h cell viability) it was greater than 10 µM; in the assay on CMS (72 h cell viability), greater than 10 µM; in the assay on M07e (72 h cell viability), greater than 10 µM. Also, the EC50 in the assay on ML-2 (72 h cell viability) was greater than 10 µM; in the assay on U937 (U-937, 72 h cell viability), greater than 10 µM.

Regarding `CSCC[C@@H](NC(=O)c1ccc(CNCc2cnc[nH]2)cc1-c1ccccc1C)C(=O)OCc1ccccc1` [SJ000803709, FTI-2628], the EC50 in the assay with MOLM-13 (MOLM-13, 72 h) is greater than 10 µM; in the assay on MV4-11 (MV4-11, 72 h), greater than 10 µM; in the assay with CHRF288-11 (72 h), greater than 10 µM; in the assay on CMK (CMK, 72 h) it was greater than 10 µM; with CMS (72 h) it was greater than 10 µM; with M07e (72 h) it was greater than 10 µM. Besides, the EC50 was greater than 10 µM in the assay on ML-2 (ML-2, 72 h) and 2 µM with U937 (U-937, 72 h).

Regarding `CC1(C)CCC(C)(C)c2cc(NC(=O)c3ccc(C(=O)O)cc3)ccc21` [TAMIBAROTENE], the EC50 was greater than 10 µM in the assay with MOLM-13 (MOLM-13, 72 h); greater than 10 µM in the assay with MV4-11 (MV4-11, 72 h); greater than 10 µM in the assay on CHRF288-11 (72 h); greater than 10 µM with CMK (CMK, 72 h); greater than 10 µM in the assay on CMS (72 h); greater than 10 µM with M07e (72 h). Further, the EC50 was greater than 10 µM in the assay with ML-2 (ML-2, 72 h) and greater than 10 µM with U937 (U-937, 72 h).

As to `Cn1nnc2c(C(N)=O)ncn2c1=O` [TEMOZOLOMIDE], the EC50 in the assay with MOLM-13 (MOLM-13, 72 h) is greater than 10 µM; with MV4-11 (MV4-11, 72 h), greater than 10 µM; in the assay with CHRF288-11 (72 h) it was greater than 10 µM; in the assay with CMK (CMK, 72 h) it was greater than 10 µM; with CMS (72 h) it was greater than 10 µM; in the assay with M07e (72 h), greater than 10 µM. Besides, the EC50 is greater than 10 µM in the assay on ML-2 (ML-2, 72 h) and greater than 10 µM in the assay with U937 (U-937, 72 h).

For `COc1cc2c(NC3CCN(C)CC3)nc(N3CCCN(C)CC3)nc2cc1OCCOCCN(C)C` [SJ000785901, UNC0321], the EC50 is greater than 10 µM with MOLM-13 (MOLM-13, 72 h); greater than 10 µM in the assay on MV4-11 (MV4-11, 72 h); greater than 10 µM with CHRF288-11 (72 h); greater than 10 µM in the assay with CMK (CMK, 72 h); greater than 10 µM in the assay on CMS (72 h); greater than 10 µM in the assay with M07e (72 h). Moreover, the EC50 in the assay on ML-2 (ML-2, 72 h) is greater than 10 µM; with U937 (U-937, 72 h) it was greater than 10 µM.
